# Data: PubChem BioAssay (NCI)
#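 48-hour exposure; five concentrations; linearly interpolated endpoints. Definition used: TGI = concentration required for complete inhibition of growth.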
# Columns and labels:
# Test in all cases: NCI tumour cell line growth inhibition, 48 h
# [1] = test system: HCC-2998 colon
# [2] = test system: OVCAR-8 ovarian
# [3] = test system: NCI-H522 lung
# [4] = test system: CCRF-CEM leukemia
# [5] = test system: OVCAR-4 ovarian
# [6] = test system: HOP-92 NSCLC
# [7] = test system: SN12C renal
# [8] = test system: SNB-75 CNS
# [9] = test system: A498 renal
# [10] = test system: HCT-15 colon
# [11] = test system: TK-10 renal
# [12] = test system: MDA-MB-231 breast
# [13] = test system: SK-MEL-28 melanoma
# [14] = test system: K-562 leukemia
# [15] = test system: NCI/ADR-RES ovarian
# [16] = test system: MDA-N
# [17] = test system: U251 CNS
# [18] = test system: PC-3 prostate
# [19] = test system: LOX IMVI melanoma
# [20] = test system: HT29 colon
# [21] = test system: NCI-H226 lung
# [22] = test system: NCI-H460 lung
# [23] = test system: A549 NSCLC
# [24] = test system: ACHN renal
# [25] = test system: SF-539 CNS
# [26] = test system: SW-620 colon
# [27] = test system: MALME-3M melanoma
# [28] = test system: DU-145 prostate
# [29] = test system: MDA-MB-435
# [30] = test system: MOLT-4 leukemia
# [31] = test system: SNB-19 CNS
# [32] = test system: EKVX NSCLC
# [33] = test system: SK-MEL-5 melanoma
# [34] = test system: HOP-62 NSCLC
# [35] = test system: M14 melanoma
# [36] = test system: UO-31 renal
# [37] = test system: T-47D breast
# [38] = test system: HS 578T breast
# [39] = test system: MCF7 breast
# [40] = test system: OVCAR-3 ovarian
# [41] = test system: RXF 393 renal
# [42] = test system: HCT-116 colon
# [43] = test system: SK-OV-3 ovarian
# [44] = test system: 786-0 renal
# [45] = test system: OVCAR-5 ovarian
# [46] = test system: SF-268 CNS
# [47] = test system: BT-549 breast
# [48] = test system: SR leukemia
# [49] = test system: NCI-H23 lung
# [50] = test system: KM12 colon
# [51] = test system: SF-295 CNS
# [52] = test system: COLO 205 colon
# [53] = test system: HL-60(TB) leukemia
# [54] = test system: IGROV1 ovarian
# [55] = test system: SK-MEL-2 melanoma
# [56] = test system: UACC-257 melanoma
# [57] = test system: CAKI-1 renal
# [58] = test system: UACC-62 melanoma
# [59] = test system: RPMI-8226 leukemia
smiles,measurement,setting,value
CN(C)Cc1cc(N=Nc2ccc(Cl)cc2)ccc1O,TGI,[1],28.6 µM
same,TGI,[2],30.6 µM
same,TGI,[3],26.3 µM
same,TGI,[4],36.7 µM
same,TGI,[5],45.7 µM
same,TGI,[6],34.6 µM
same,TGI,[7],33.1 µM
same,TGI,[8],28.8 µM
same,TGI,[9],31.8 µM
same,TGI,[10],29.1 µM
same,TGI,[11],28.4 µM
same,TGI,[12],32.2 µM
same,TGI,[13],29.6 µM
same,TGI,[14],35.2 µM
same,TGI,[15],33.4 µM
same,TGI,[16],42.9 µM
same,TGI,[17],31.1 µM
same,TGI,[18],30.3 µM
same,TGI,[19],23.5 µM
same,TGI,[20],26.4 µM
same,TGI,[21],30.3 µM
same,TGI,[22],26.7 µM
same,TGI,[23],29.4 µM
same,TGI,[24],29.3 µM
same,TGI,[25],34.8 µM
same,TGI,[26],30.7 µM
same,TGI,[27],27.2 µM
same,TGI,[28],48.1 µM
same,TGI,[29],30.3 µM
same,TGI,[30],31.8 µM
same,TGI,[31],34.1 µM
same,TGI,[32],33.8 µM
same,TGI,[33],27.6 µM
same,TGI,[34],21.7 µM
same,TGI,[35],53.1 µM
same,TGI,[36],24.5 µM
same,TGI,[37],28.3 µM
same,TGI,[38],31.3 µM
same,TGI,[39],31.4 µM
same,TGI,[40],24.2 µM
same,TGI,[41],27.9 µM
same,TGI,[42],31.2 µM
same,TGI,[43],33.8 µM
same,TGI,[44],25.8 µM
same,TGI,[45],26.3 µM
same,TGI,[46],34.4 µM
same,TGI,[47],26.8 µM
same,TGI,[48],39.8 µM
same,TGI,[49],45.2 µM
same,TGI,[50],34.5 µM
same,TGI,[51],30.9 µM
same,TGI,[52],13.8 µM
same,TGI,[53],32.1 µM
same,TGI,[54],32.3 µM
same,TGI,[55],38.1 µM
same,TGI,[56],32.7 µM
same,TGI,[57],32.2 µM
same,TGI,[58],30.1 µM
O=C(CCOS(=O)(=O)CF)N1CCN(C(=O)CCOS(=O)(=O)CF)CC1,TGI,[1],> 100 µM
same,TGI,[2],> 100 µM
same,TGI,[3],> 90.1 µM
same,TGI,[4],> 87.9 µM
same,TGI,[5],> 100 µM
same,TGI,[6],> 100 µM
same,TGI,[7],> 100 µM
same,TGI,[8],> 56.7 µM
same,TGI,[9],> 100 µM
same,TGI,[10],> 100 µM
same,TGI,[11],> 100 µM
same,TGI,[12],> 100 µM
same,TGI,[13],> 100 µM
same,TGI,[14],> 100 µM
same,TGI,[15],> 100 µM
same,TGI,[16],> 100 µM
same,TGI,[17],> 100 µM
same,TGI,[18],> 100 µM
same,TGI,[19],> 100 µM
same,TGI,[20],> 100 µM
same,TGI,[21],> 100 µM
same,TGI,[22],> 100 µM
same,TGI,[23],> 100 µM
same,TGI,[24],> 88.7 µM
same,TGI,[25],> 100 µM
same,TGI,[26],> 100 µM
same,TGI,[27],> 100 µM
same,TGI,[28],> 100 µM
same,TGI,[29],> 100 µM
same,TGI,[59],> 46.4 µM
same,TGI,[30],36.3 µM
same,TGI,[31],> 100 µM
same,TGI,[32],> 100 µM
same,TGI,[33],> 100 µM
same,TGI,[34],> 100 µM
same,TGI,[35],> 100 µM
same,TGI,[36],> 100 µM
same,TGI,[37],> 100 µM
same,TGI,[38],> 100 µM
same,TGI,[39],> 100 µM
same,TGI,[40],> 100 µM
same,TGI,[41],> 100 µM
same,TGI,[42],> 100 µM
same,TGI,[43],> 82.5 µM
same,TGI,[44],> 100 µM
same,TGI,[45],> 100 µM
same,TGI,[46],> 100 µM
same,TGI,[47],> 100 µM
same,TGI,[48],> 100 µM
same,TGI,[49],> 100 µM
same,TGI,[50],> 100 µM
same,TGI,[51],> 46.4 µM
same,TGI,[52],> 100 µM
same,TGI,[53],29.6 µM
same,TGI,[54],> 100 µM
same,TGI,[55],> 100 µM
same,TGI,[56],> 100 µM
same,TGI,[57],> 100 µM
same,TGI,[58],> 100 µM
COc1cccc2cc(C(=O)Nc3ccccn3)c(=N)oc12,TGI,[1],> 100 µM
same,TGI,[2],> 100 µM
same,TGI,[3],> 100 µM
same,TGI,[4],> 100 µM
same,TGI,[5],> 100 µM
same,TGI,[6],> 100 µM
same,TGI,[7],> 100 µM
same,TGI,[8],> 100 µM
same,TGI,[9],> 100 µM
same,TGI,[10],> 100 µM
same,TGI,[11],> 100 µM
same,TGI,[12],> 100 µM
same,TGI,[13],> 100 µM
same,TGI,[14],> 100 µM
same,TGI,[15],> 100 µM
same,TGI,[16],> 100 µM
same,TGI,[17],> 100 µM
same,TGI,[18],> 100 µM
same,TGI,[19],> 100 µM
same,TGI,[20],> 100 µM
same,TGI,[21],> 100 µM
same,TGI,[22],> 100 µM
same,TGI,[23],> 100 µM
same,TGI,[24],> 100 µM
same,TGI,[25],> 100 µM
same,TGI,[26],> 100 µM
same,TGI,[27],> 100 µM
same,TGI,[28],> 100 µM
same,TGI,[29],> 100 µM
same,TGI,[59],> 100 µM
same,TGI,[30],10.6 µM
same,TGI,[31],> 100 µM
same,TGI,[32],> 100 µM
same,TGI,[33],> 100 µM
same,TGI,[34],> 100 µM
same,TGI,[35],> 100 µM
same,TGI,[36],> 100 µM
same,TGI,[37],> 100 µM
same,TGI,[38],> 100 µM
same,TGI,[39],> 100 µM
same,TGI,[40],88.4 µM
same,TGI,[41],> 100 µM
same,TGI,[42],> 100 µM
same,TGI,[43],> 100 µM
same,TGI,[44],> 100 µM
same,TGI,[45],> 100 µM
same,TGI,[46],> 100 µM
same,TGI,[47],> 100 µM
same,TGI,[48],16.5 µM
same,TGI,[49],> 100 µM
same,TGI,[50],> 100 µM
same,TGI,[51],> 100 µM
same,TGI,[52],> 100 µM
same,TGI,[53],82.9 µM
same,TGI,[54],> 100 µM
same,TGI,[55],> 100 µM
same,TGI,[56],> 100 µM
same,TGI,[57],> 100 µM
same,TGI,[58],> 100 µM
